Test results as given in patent publication US20150284393A1, “METHODS FOR TREATING EYE DISORDERS” (PRISM PHARMA CO., LTD, priority 2012, published 2015).

Assays:
[1] = test system: rat model of proliferative vitreoretinopathy (PVR) following retinal detachment; assay: rat model of proliferative vitreoretinopathy (PVR) following retinal detachment; type: in vivo, Long Evans rats
Source text: The objective of this study was to assess the anti-fibrotic efficacy of Compound A, an alpha helix mimetic β-catenin inhibitor compound, in a rat model of proliferative vitreoretinopathy (PVR) following retinal detachment. Compound A is 4-(((6S,9S,9aS)-1-(benzylcarbamoyl)-2,9-dimethyl-4,7-dioxo-8-(quinolin-8-ylmethyl)octahydro-1H-pyrazino[2,1-c][1,2,4]triazin-6-yl)methyl)phenyl dihydrogen phosphate.
The well defined normal consequences of retinal detachment in this animal model are the hyperproliferation of retinal glial cells (primarily Muller cells), the recruitment of immune cells, and the formation of glial scars. An effective treatment would result in less glial scarring.
Retinal detachments were created by infusing a dilute solution (0.25%) of Healon into the subretinal space of the right eyes in 16 Long Evans rats. Twenty (20) mg/ml of Compound A in 5 microliters were injected intravitreally immediately after the detachment surgery in 8 animals. The other 8 animals received an intravitreal injection of the vehicle as a control. The left eyes served as naive controls. Seven days after detachment, settling of the retina occurs causing folds to form in the retina. All animals were euthanized using CO2, 7 days after retinal detachment.
Following euthanasia, the retinas were fixed in 4% paraformaldehyde for 24 hours. Three retinal regions approximately 3 mm square were sampled from within each detached retina as well as from control retinas. The retinas were embedded in agarose and vibratomed at 100 microns in thickness. Sections were immunolabeled with antibodies to intermediate filament proteins (vimentin) and proliferating cells (phosphohistone H3). A marker for immune cells (isolectin B4) and a nuclear stain (Hoescht) was also used. All 4 probes were added to the same sections (i.e. quadruple labeling).
The sections were imaged using an Olympus FV1000 confocal microscope. Digital images were aquired and used to determine 1) the number and size of subretinal glial scars 2) the number of dividing cells and their cell type e.g. of immune or glial origin 3) whether microglia were “activated” and 4) if macrophages were present.
The data were analyzed using a two-tailed T-test. Mean differences with a P values less than 0.05 were considered significant.
Scar frequency was calculated by dividing the total number of scars noted in each retina by the total area examined. The average scar size/length was calculated by dividing the total scar length in a given retina by the total number of scars counted in that retina.
Immunohistochemistry. Qualitative assessment of animals (4 saline and 4 Compound A treated) were evaluated for glial scarring, cell proliferation, and immune cell infiltrates. Three retinal regions from rats 5-8 (PVR+saline) and 13-16 (PVR+Compound A) were excised from the eye, sectioned, and labeled with antibodies (˜25 sections from each eye were surveyed).

[2] = test system: rat model of laser-induced choroidal neovascularization; assay: rat model of laser-induced choroidal neovascularization (CNV); type: in vivo, Brown Norway rats; details: for average CNV lesion size vs vehicle controls: bilateral intravitreal on Days 3 and 10; for anti-angiogenic or vascular disruption activity: rat model of CNV, intravitreal
Source text: The objective of this study was to assess the anti-angiogenic/vascular disrupting effects of Compound A, an alpha helix mimetic β-catenin inhibitor compound, and Compound C, the active metabolite of Compound A, in a rat model of laser-induced choroidal neovascularization. Compound A is 4-(((6S,9S,9aS)-1-(benzylcarbamoyl)-2,9-dimethyl-4,7-dioxo-8-(quinolin-8-ylmethyl)octahydro-1H-pyrazino[2,1-c][1,2,4]triazin-6-yl)methyl)phenyl dihydrogen phosphate. Compound C is (6S,9S,9aS)-N-benzyl-6-(4-hydroxybenzyl)-2,9-dimethyl-4,7-dioxo-8-(quinolin-8-ylmethyl)octahydro-1H-pyrazino[2,1-c][1,2,4]triazine-1-carboxamide.
For compound A, an 80 mg/ml solution of 4-(((6S,9S,9aS)-1-(benzylcarbamoyl)-2,9-dimethyl-4,7-dioxo-8-(quinolin-8-ylmethyl)octahydro-1H-pyrazino[2,1-c][1,2,4]triazin-6-yl)methyl)phenyl dihydrogen phosphate was prepared in sterile PBS. This solution was further diluted 1:4 to make a 20 mg/ml solution. The 20 mg/ml solution was diluted 1:4 to make a 5 mg/ml solution.
For compound C, a solution containing 0.5% NaCMC and 0.5% Polysorbate 80 (Tween 80) was prepared in USP grade water. 20 mg of (6S,9S,9aS)-N-benzyl-6-(4-hydroxybenzyl)-2,9-dimethyl-4,7-dioxo-8-(quinolin-8-ylmethyl)octahydro-1H-pyrazino[2,1-c][1,2,4]triazine-1-carboxamide was dissolved in 1 ml (using displacement pipette) of USP grade PEG400 in a glass vial. Slight heating and sonication/vortexing were performed if necessary. The glass vial containing the 20 mg/ml compound C solution was placed on a magnetic stir plate and an equal volume (1 ml) of the CMC/Tween 80 solution was added to the compound C/PEG400 solution (slowly in drop-wise fashion during continuous mixing with a stir bar). The resultant formulation was a clear solution containing 10 mg/ml compound C, 50% PEG400, 0.25% NaCMC, and 0.25% Tween 80.
Laser application to produce CNV lesions. Animals were dilated with 1% Cyclogyl solution and protected from light. Following observable dilation, the animals were sedated with ketamine/xylazine. The fundus of sedated animals was observed and recorded using a Micron III small animal funduscope (Phoenix Research). Laser treatments were performed using a thermal laser which is connected through the Micron III custom laser attachment. A total of 3 lesions per eye were placed using a wavelength of 520 nm.
Fundus images were recorded to confirm that the laser had successfully produced a bubble through the Bruch's membrane. It was expected that 5-10% of all laser spots would not develop any quantifiable CNV.
Intravitreal injections. Animals were anesthetized with ketamine/xylazine and the test compound was then injected in a volume of 5 μl into the vitreous through the pars plana using a Hamilton syringe and a 32 gauge needle. Following injection, the animals received an equal amount of topical antibiotic ointment on both eyes. Any eyes displaying signs of hemorrhage following laser application or intravitreal injection were excluded from analysis.
Fluorescein angiography. Animals were anesthetized with ketamine/xylazine and then received an IP injection of 10% Fluorescein Sodium at 1 μl/gram of body weight. Fundus images were then captured as 8-bitt TIFF files using the Micron III and exciter/barrier filters for a target wavelength of 488 nm. Standard color fundus photos were also captured for each eye.
Imaging and lesion quantification. All TIFF images were quantified using computerized image-analysis software (ImageJ, NIH, USA). Lesions were then individually traced free-hand in order to quantify the area in pixels and the color fundus photos were used as a reference for lesion location. Areas of avascularization in the center of lesions were excluded from area calculations. In the case of a hemorrhage or two lesions overlapping these lesions were excluded from analysis.
Statistical Analyses. Statistical Analyses were performed with Graphpad Prism software (version 5) using one-way analysis of variance (ANOVA) with a Tukey's post-hoc test for significance.
Animals. […]

Row | Structure (SMILES) | dividing immune cells (immune cell response) following retinal detachment ([1]; 20 mg/ml in 5 microliters intravitreally immediately after detachment, 7 days after detachment, vs vehicle, FIG. 1A) | number of Muller cells/mm ([1]; 20 mg/ml in 5 microliters intravitreally, 7 days after detachment, two-tailed T-test, P<0.05 significant, FIG. 1C) | increase in number of proliferating glial cells following retinal detachment ([1]; 20 mg/ml in 5 microliters intravitreally, 7 days after detachment, vs vehicle, FIG. 1B) | increase in number of proliferating Muller cells following retinal detachment ([1]; 20 mg/ml in 5 microliters intravitreally, 7 days after detachment, vs vehicle, FIG. 1C) | increase in number of proliferating astrocytes following retinal detachment ([1]; 20 mg/ml in 5 microliters intravitreally, 7 days after detachment, vs vehicle, FIG. 1D) | frequency of glial scar formation (total number of scars / total area examined) ([1]; 20 mg/ml in 5 microliters intravitreally, 7 days after detachment, vs vehicle, FIG. 2A) | average scar size/length (total scar length / number of scars) ([1]; 20 mg/ml in 5 microliters intravitreally, 7 days after detachment, vs vehicle, FIG. 2B) | subretinal gliosis (glial scarring), vimentin labeled Muller cell processes extending into the subretinal space, immunohistochemistry ([1]; qualitative assessment, 4 treated animals (rats 13-16) vs 4 saline, FIGS. 3C-3D) | average CNV lesion size vs vehicle controls ([2]; Day 15, 400 μg, p<0.01, FIG. 4A) | average CNV lesion size vs vehicle controls ([2]; Day 22, 100 μg, p<0.01, FIG. 4B) | anti-angiogenic or vascular disruption activity [2] | CNV lesion size, dose effect ([2]; two higher tested doses (100 μg or 400 μg), 25 μg not significant) | size of the lesions ([2]; 50 μg intravitreal) | average CNV lesion size vs vehicle controls ([2]; Day 15, 50 μg, p<0.05, FIG. 4A)
1 | C[C@H]1[C@H]2N(C(=O)CN(C)N2C(=O)NCc2ccccc2)[C@@H](Cc2ccc(OP(=O)(O)O)cc2)C(=O)N1Cc1cccc2cccnc12 [Compound A, 4-(((6S,9S,9aS)-1-(benzylcarbamoyl)-2,9-dimethyl-4,7-dioxo-8-(quinolin-8-ylmethyl)octahydro-1H-pyrazino[2,1-c][1,2,4]triazin-6-yl)methyl)phenyl dihydrogen phosphate] | did not have any effect | significantly affected | largely attenuated | largely attenuated | largely attenuated | significantly reduced | significant reduction | no glial scarring was noted | statistically significant | demonstrated significance | demonstrated efficacy | demonstrated statistical significance | – | –
2 | C[C@H]1[C@H]2N(C(=O)CN(C)N2C(=O)NCc2ccccc2)[C@@H](Cc2ccc(O)cc2)C(=O)N1Cc1cccc2cccnc12 [Compound C, (6S,9S,9aS)-N-benzyl-6-(4-hydroxybenzyl)-2,9-dimethyl-4,7-dioxo-8-(quinolin-8-ylmethyl)octahydro-1H-pyrazino[2,1-c][1,2,4]triazine-1-carboxamide] | – | – | – | – | – | – | – | – | – | – | demonstrated efficacy | – | significant impact | statistically significant
